# Tests used:
# [1] = system: transplanted tumor of mouse Lewis lung cancer; experiment: Transplanted tumor of mouse Lewis lung cancer
# Method: Lewis lung cancer cells were cultured in a RPMI 1640 culture medium containing 10% fetal bovine serum at 37° C. in a 5% CO2 incubator. The cells in the logarithmic growth phase were subjected to trypsinization with 0.25% trypsin, then the cells were collected to be centrifugated to remove the obtained supernatant, then were washed twice with sterile normal saline. […] The Lewis cells were adjusted to 1×10^7/mL in concentration and stored in ice water. 75% ethanol was used to disinfect the skin under the right armpits of the mice, and each C57BL/6 mouse was soon inoculated subcutaneously with 0.2 ml of the cells at its right armpit.
# In the Lewis lung cancer model, the mice inoculated with the tumor were randomly divided into groups with 10 mice in each group the next day of inoculation. The groups included: a model control group, a positive drug cyclophosphamide control group (CTX, 30 mg/kg), isovaleryl spiramycin I groups with doses of 13, 26 and 52 mg/kg; isovaleryl spiramycin II groups with doses of 13, 26 and 52 mg/kg; isovaleryl spiramycin III groups with doses of 13, 26 and 52 mg/kg. Each group was continuously administered intragastrically for 15 days with a dose of 20 ml/kg.
# The tumor-bearing mice were weighed and sacrificed the next day after the last administration. The subcutaneous tumors were dissected and weighed. The average tumor weight of each group is calculated, and the tumor inhibition rate is calculated.
# Tumor inhibition rate=(1−T/C)×100%
# T: average tumor weight of the drug-administered group; C: average tumor weight of the blank control group.
# [2] = system: transplanted tumor of human breast cancer cell MCF-7; experiment: MCF-7 transplanted tumor in nude mice; settings: MCF-7; 30 mg/kg i.g. 30 days
# Method: (§1) Then cell concentration was adjusted to 1×10^7/ml with matrigel, then each nude mouse was inoculated subcutaneously with 0.2 ml of cells at its right armpit and recorded as the first day of inoculation. When the tumor grows to be greater than or equal to 100 mm^3, the mice were randomly divided into 11 groups with 6 mice in each group: a model group, a cyclophosphamide group, isovaleryl spiramycin I groups with doses of 25, 50 and 100 mg/kg, isovaleryl spiramycin II groups with doses of 25, 50 and 100 mg/kg, and isovaleryl spiramycin III groups with doses of 25, 50 and 100 mg/kg. Each group was continuously administered intragastrically for 30 days with a dose of 20 ml/kg. The mice were sacrificed the next day after drug withdrawal and the indicators were tested. The long diameter and short diameter of the tumor, and the body weight of each mouse were recorded every 3 days from drug administration to nude mouse sacrifice.
# (§2) The body weight of the nude mice and the long diameter (a) and short diameter (b) of the transplanted tumor were measured every 3 days, and the tumor volume (v), relative tumor volume (RTV) and relative tumor proliferation rate (T/C) are calculated respectively according to the following formulas, wherein V=a×b^2/2; RTV=V/V0 (V0 is the tumor volume before administration, V is the tumor volume before sacrifice), and T/C (%)=treatment group RTV/model control group RTV×100%.
# (§3) Each mouse was weighed and sacrificed. After the tumor was completely stripped off from the body of the mouse, the non-tumor tissues such as blood stains and fat were removed to weigh the tumor and calculate the tumor growth inhibition rate. The average tumor weight of each group of mice is used as an indicator of efficacy. Tumor growth inhibition rate (%)=(1−the average tumor weight of the treatment group/the average tumor weight of the model group)×100%.
# [3] = system: transplanted tumor of HT-29 cells; experiment: HT-29 transplanted tumor in nude mice
# Method: as §1, with “group:” for “group: a model group, a cyclophosphamide group,”
# as §2, §3
# [4] = dose 30 mg/kg, title prints KM mouse H22 cells
smiles,measurement,setting,value
"O=P1(N(CCCl)CCCl)NCCCO1 (stereo not shown) [Cyclophosphamide, cyclophosphamide, reference compound]",Inhibition Rate (%),[1]; dose 30 mg/kg,76.43%
same,Tumor Weight,[1]; dose 30 mg/kg,0.38 ± 0.07 g
same,Body Weight (g) (d1),"[1]; dose 30 mg/kg, d 1",19.62 ± 1.01 g
same,Tumor Volume (mm3) (d 1),"[1]; dose 30 mg/kg, d 1, title prints KM mouse H22 cells",104.35 ± 30.89 mm3
same,Body Weight (g) (d 15),"[1]; dose 30 mg/kg, d 15",21.38 ± 0.67 g
same,Tumor Volume (mm3) (d30),"[1]; dose 30 mg/kg, d 30, title prints KM mouse H22 cells",371.39 ± 112.68 mm3
same,Relative Tumor Proliferation Rate (T/C),[1]; [4],24.55
same,Relative Tumor Volume (RTV),[1]; [4],3.93 ± 1.86
same,tumor inhibition rate,"[1]; mouse Lewis lung cancer, CTX 30 mg/kg i.g. 15 days",76.43%
same,Body Weight (d 1),[2],22.03 ± 0.70 g
same,Body Weight (d 30),[2],17.77 ± 0.65 g
same,Inhibition Rate (tumor growth inhibition rate),[2],70.18%
same,Relative Tumor Proliferation Rate (T/C),[2],29.56%
same,Relative Tumor Volume (RTV),[2],5.17 ± 0.64
same,Tumor Volume (d 1),[2],103.78 ± 12.65 mm3
same,Tumor Volume (d 30),[2],532.62 ± 56.27 mm3
same,Tumor Weight,[2],0.81 ± 0.25*8 g
same,Inhibition Rate (%),"[3]; HT-29 nude mice, 30 mg/kg",78.87%
same,Tumor Weight,"[3]; HT-29 nude mice, 30 mg/kg",0.50 ± 0.25 g
same,Body Weight (g) (d1),"[3]; HT-29 nude mice, 30 mg/kg, d1",21.42 ± 1.35 g
same,Body Weight (g) (d30),"[3]; HT-29 nude mice, 30 mg/kg, d30",18.69 ± 1.21 g
same,Relative Tumor Proliferation Rate (T/C),[3]; dose 30 mg/kg,19.84%
same,Relative Tumor Volume (RTV),[3]; dose 30 mg/kg,2.86 ± 1.44
same,Tumor Volume (mm3) (d 1),"[3]; dose 30 mg/kg, d 1",176.59 ± 36.81 mm3
same,Tumor Volume (mm3) (d30),"[3]; dose 30 mg/kg, d 30",477.12 ± 166.46 mm3

# Source: US20200163984A1, “USE OF ISOVALERYL SPIRAMYCIN I, II AND/OR III IN MANUFACTURING MEDICAMENT FOR TREATING AND/OR PREVENTING TUMOR, AND MEDICAMENT” (SHENYANG FUYANG PHARMACEUTICAL TECHNOLOGY CO., LTD., priority 2017, published 2020)
